According to patent EP1428519A2, “5-Lipooxygenase inhibitors in deodorants and antiperspirants” (Henkel Kommanditgesellschaft auf Aktien, priority 2002, dated 2004):
Counter-ions that a name gives are not always drawn.

Target: T1, 5-Lipoxigenase (Homo sapiens, UniProt P09917)
T1 construct: durch Ultraschallbehandlung aufgeschlossen; Größere Zellbestandteile wurden bei 100 000 g abzentrifugiert, wobei 5-Lipoxigenase im Überstand verblieb; endogenous in cells; sonicated; 100 000 g supernatant
T1 sequence (P09917 1-674): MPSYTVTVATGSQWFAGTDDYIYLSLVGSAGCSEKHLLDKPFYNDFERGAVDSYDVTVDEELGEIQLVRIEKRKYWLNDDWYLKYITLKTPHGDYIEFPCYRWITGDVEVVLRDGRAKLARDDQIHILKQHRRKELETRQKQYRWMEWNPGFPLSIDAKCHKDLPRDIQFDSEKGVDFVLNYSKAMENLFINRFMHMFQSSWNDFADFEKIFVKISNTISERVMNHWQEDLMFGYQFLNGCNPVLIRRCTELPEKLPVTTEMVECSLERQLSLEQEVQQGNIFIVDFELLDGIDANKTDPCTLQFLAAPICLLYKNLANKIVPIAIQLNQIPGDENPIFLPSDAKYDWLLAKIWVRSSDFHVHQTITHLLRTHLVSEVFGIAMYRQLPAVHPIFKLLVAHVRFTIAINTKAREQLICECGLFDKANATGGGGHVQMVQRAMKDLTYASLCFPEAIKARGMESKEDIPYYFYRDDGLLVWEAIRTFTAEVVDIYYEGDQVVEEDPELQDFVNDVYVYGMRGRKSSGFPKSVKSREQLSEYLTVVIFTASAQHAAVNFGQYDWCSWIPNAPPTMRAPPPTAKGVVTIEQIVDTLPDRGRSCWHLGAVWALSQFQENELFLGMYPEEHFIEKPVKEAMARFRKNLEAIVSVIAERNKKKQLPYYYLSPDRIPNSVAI
Experiment: 5-lipoxygenase inhibition in vitro (supernatant of differentiated leukaemia cells, leukotrienes quantified by HPLC)
Type: biochemical, menschlichen
Conditions: 100 µg raw material as is per ml supernatant; 30 s preincubation at 37° C, 10 min reaction with arachidonic acid; activity without test substance = 100 %; solvent per substance (Ethanol, Wasser or DMSO)
From the text: Die 5-Lipoxigenase wurde aus menschlichen Leukämie-Zelllinien durch Zugabe von Dimethylsulfoxid (DMSO), TGF-β1 (transforming growth factor β1) und Dihydroxyvitamin D3 differenziert und dabei zugleich die 5-Lipoxigenase induziert. Nach 4 Tagen im Differenzierungsmedium wurden die Zellen geerntet, in einem Glucose-haltigen PBS-Puffer aufgenommen und durch Ultraschallbehandlung aufgeschlossen. Größere Zellbestandteile wurden bei 100 000 g abzentrifugiert, wobei 5-Lipoxigenase im Überstand verblieb.
Die Bestimmung der 5-Lipoxigenase-Inhibitionswirkung erfolgte gemäß Werz et al., Naunyn-Schmiedeberg's Arch. Pharmacol., 1997, Vol. 456, 441 - 445.
Dem Überstand aus der 5-Lipoxigenase-Herstellung wurden Adenosintriphosphat (ATP) und die zu testenden Rohstoffe zugesetzt. Im vorliegenden Falle wurden 100 µg Rohstoff, so wie er ist, pro Milliliter Überstand eingesetzt. Als Lösemittel wurden je nach Substanz Wasser, Ethanol, DMSO oder Chloroform verwendet.
Die Ansätze wurden für 30 Sekunden bei 37° C vorinkubiert. Anschließend wurde die 5-Lipoxigenase-Reaktion durch Zusatz von Arachidonsäure gestartet. Nach 10 Minuten Reaktionszeit wurde die Reaktion durch Zugabe von Methanol gestoppt. Die durch die Einwirkung der 5-Lipoxigenase auf Arachidonsäure produzierten Leukotriene wurden mittels HPLC quantifiziert. Die Aktivität von 5-Lipoxigenase ohne Zugabe von Testsubstanz wurde zu 100 % gesetzt und die Aktivität der 5-Lipoxigenase mit Hemmstoff darauf bezogen. In Tabelle 1 ist die Hemmwirkung der einzelnen Testsubstanzen in % angegeben.

## CC(C)=CCCC(C)(O)C1CC=C(C)CC1 (stereo not drawn) [α-Bisabolol]
  Hemmwirkung: 90,3%

## CC[C@H](CC[C@@H](C)[C@H]1CC[C@H]2[C@@H]3CC=C4C[C@@H](OS(=O)(=O)O)CC[C@]4(C)[C@H]3CC[C@]12C)C(C)C [Phytocohesine, Sodium Beta-Sitosteryl Sulfate]
  Hemmwirkung: 62,8%

## O=C(O)CCCCC1CCSS1 (stereo not drawn) [α-Liponsäure, reference compound]
  Hemmwirkung: 40,4%
